# B1: Aptamer A9: RNA aptamer which binds specifically to PSMA (nucleic acid)
# chain: GGGAGGACGAUGCGGACCGAAAAAGACCUGACUUCUAUACUAAGUCUACGUUCCCAGACGACUCGCCCGA
# modifications: listed as RNA, chemistry not given here
# B2: Aptamer A10: RNA aptamer which binds specifically to PSMA (nucleic acid)
# chain: GGGAGGACGAUGCGGAUCAGCCAUGUUUACGUCACUCCUUGUCAAUCCUCAUCGGCAGACGACUCGCCCGA
# modifications: listed as RNA, chemistry not given here
# Tests used:
# Erk1/2 = test: Western blot of Erk1/2 phosphorylation in LnCAP cells; format: cell-based, human; conditions: for DHT-induced Erk1/2 phosphorylation: inhibitor 30 min (100 nM flutamide, 20 μM AG1478, 5 μM Erlotinib, 20 μM PP2, 20 μM galardin) before 25 nM DHT 30 min
# Method: Thereafter, cells were treated with vehicle (0.1% DMSO) or inhibitors Galardin, PP2, AG1478 (Calbiochem), flutamide, or erlotinib (Sigma) for 30 minutes before stimulation with 0.1% ethanol (vehicle) or 25 nM DHT for 30 minutes.
# PC3 or LnCAP cells were treated with non-targeting siRNA pool (ThermoFisher Scientific) or paxillin-specific siRNA according to manufacturer's instructions. Two sets of human paxillin siRNAs were used: 1) human paxillin siRNA (Santa Cruz Biotechnology) containing three target-specific 20-25 nucleotide siRNAs or 2) human paxillin siRNA ON-TARGET plus SMARTpoo1 (ThemoFisher Scientific) containing four siRNAs targeting the paxillin mRNA. […] For experiments involving constitutively active (“CA”) Raf (William Walker, University of Pittsburgh) or MEK (Melanie Cobb, University of Texas Southwestern Medical Center), cells were co-transfected with paxillin or nonspecific siRNAs and cDNAs encoding caRaf or caMEK.
# Src = test: Western blot of Src phosphorylation in LnCAP cells; format: cell-based, human; conditions: 20 μM, 30 min before 25 nM DHT
# Method: (§1) LnCAP and PC3 cell lines were obtained from ATCC and cultured in RPMI 1640 medium (Invitrogen) containing 10% FBS and 1% penicillin-streptomycin. For experiments involving pharmacological inhibitors, cells were treated overnight with serum-free, phenol red-free RPMI 1640 media. Thereafter, cells were treated with vehicle (0.1% DMSO) or inhibitors Galardin, PP2, AG1478 (Calbiochem), flutamide, or erlotinib (Sigma) for 30 minutes before stimulation with 0.1% ethanol (vehicle) or 25 nM DHT for 30 minutes.
# (§2) Western blots were performed as described (Evaul and Hammes, “Cross-Talk Between G Protein-Coupled and Epidermal Growth Factor Receptors Regulates Gonadotropin-Mediated Steroidogenesis in Leydig Cells,” J. Biol. Chem. 283(41):27525-27533 (2008), which is hereby incorporated by reference in its entirety). Primary antibodies were: paxillin, paxillinphospho-Tyr118, paxillin-phospho-Tyr31, Akt1/2/3, Akt1/2/3 phospho-Ser473, EGFR at 1:1000 dilution, and EGFR phospho-Tyr845 (1:500) (Santa Cruz Biotechnology); paxillin phospho-Ser126 (Invitrogen); paxillin phospho-Ser83 (ECM Biosciences); p44/42-Erk1/2, phospho-p44/42-Erk1/2 (Thr202/[…]), phospho-Ser217/221-MEK1/2, src, src-phospho-Tyr416 (Cell Signaling Technology) at 1:1000 dilutions and f3-actin (1:5000, Millipore).
# paxillin [1] = test: Western blot of paxillin phosphorylation in LnCAP cells; format: cell-based, human; conditions: for DHT-induced paxillin phosphorylation at all four sites (tyrosines 31/118, serines 83/126): AG1478 or 20 μM PP2 before DHT
# Method: as §1, §2
# PSA mRNA = PSA mRNA expression by real time PCR in LnCAP cells; format: cell-based, human; conditions: 20 μM U0126 or 20 μM AG1478 30 minutes before 25 nM DHT 24 hours
# Method: RNA was isolated with the RNeasy mini kit (Qiagen) according to manufacturer's instructions. Levels of Kallikrein-related peptidase-3 (KLK3, or prostate-specific antigen (“PSA”)), paxillin, cyclin D1, and GAPDH expression were analyzed by the A/A-Ct method using Taqman gene expression assay primers (assay ID# Hs99999905_ml-GAPDH, Hs02576345_ml-KLK3, Hs99999004_ml-CCND1, and Hs01104424-ml-PXN; Applied Biosystems) on an ABI StepOne plus real-time PCR machine.
# MEK = conditions: MLTC cells; 20 μM; cited from earlier work
# EGFR = EGFR transactivation assay in A431 cells; format: cell-based
# Method: A431 cells were used to detect DHT-mediated release of EGFR ligands from LnCAP cells. A431 cells (ATCC) were cultured in DMEM/F-12 (1:1) medium (Invitrogen) containing 10% FBS and 1% penicillin-streptomycin, serum-starved overnight, and then stimulated with medium from DHT−, DHT+Galardin−, or vehicle (0.1% ethanol)-treated LnCAP cells for 60 minutes. As controls, A431 cells were stimulated with DHT or media alone. Thereafter, A431 cells were isolated for Western blot analysis to detect phosphorylated and total EGFR.
# paxillin [2] = test: Western blot of paxillin phosphorylation in PC3 cells; format: cell-based, human; conditions: PMA 100 nM or EGF 20 ng/ml, 30 minutes
# Method: FIGS. 8A-D illustrate that PMA-mediated Erk1/2 activation is paxillin-independent, but PMA-mediated proliferation still requires serine phosphorylation of paxillin. In FIG. 8A, paxillin (Pax) or non-targeting (Nsp) siRNA-treated LnCAP cells were serum-starved and treated with PMA (100 nM) or EGF (20 ng/ml) for 30 minutes. Western blots were performed for paxillin and total and phosphorylated Erk1/2. In FIG. 8B, serum-starved PC3 cells were pretreated with 0.1% DMSO or 20 μM U0126 ([…]) for 30 minutes before stimulation with PMA (100 nM) or EGF (20 ng/ml) for another 30 minutes. Thereafter, levels of paxillin and phosphorylated paxillin at tyrosine-118 (Pax p-Y118) and serine-126 (Pax p-S126) were detected by Western blot. In FIG. 8C, cell proliferation (MTT assay) of PC3 cells treated (24 hours) with 0.1% DMSO (M) or 100 nM PMA in the presence or absence of 20 μM U0126. In FIG. 8D, PC3 cells were initially transfected with Paxillin (Pax) or non-targeting (Nsp) siRNA. After 96 hours, media were removed, and cells were then either mock-transfected or transfected with wild-type paxillin (left panel) or paxillin mutated at tyrosines 31/118 (Y31A/Y118A, middle panel) or serines 83/126/130 (S83A/S126A/S130A, right panel). […] Cell proliferation was detected by MTT. […]
# [3] = molecular target: prostate-specific membrane antigen (PSMA) (Homo sapiens, UniProt Q04609); conditions: cited from earlier work
# androgen receptors (AR) = test: Androgen receptor nuclear localization by fluorescence imaging; format: cell-based
# Method: Cellular staining was carried out using fluorescence imaging for androgen receptors (AR) and DAPI. […] Furthermore, knockdown and rescue experiments confirm that phosphoserine-paxillin is the moiety regulating AR translocation to the nucleus, since the mutant lacking the Erk serine targets (S A) cannot sustain AR nuclear localization (FIG. 17F versus 17E). Importantly, leptomycin B, which prevents nuclear export through CRM, rescues the nuclear localization of the AR in paxillin-knockdown cells stimulated with DHT (FIG. 17D). […] The latter allows the AR to remain in the nucleus, bind DNA, and promote transcription.
# LnCAP cells = test: MTT cell proliferation assay, LnCAP cells; format: cell-based, human
# Method: PC3 or LnCAP cells were treated with non-targeting siRNA pool (ThermoFisher Scientific) or paxillin-specific siRNA according to manufacturer's instructions. Two sets of human paxillin siRNAs were used: 1) human paxillin siRNA (Santa Cruz Biotechnology) containing three target-specific 20-25 nucleotide siRNAs or 2) human paxillin siRNA ON-TARGET plus SMARTpoo1 (ThemoFisher Scientific) containing four siRNAs targeting the paxillin mRNA. The latter was used for all experiments described in the accompanying Examples, although results were similar with both pools. For experiments involving constitutively active (“CA”) Raf (William Walker, University of Pittsburgh) or MEK (Melanie Cobb, University of Texas Southwestern Medical Center), cells were co-transfected with paxillin or nonspecific siRNAs and cDNAs encoding caRaf or caMEK. After 72 hours, cells were treated overnight with serum-free, phenol red-free RPMI 1640 media and stimulated with 0.1% ethanol/DMSO (vehicle), 25 nM DHT (Steraloids), 20 ng/ml EGF (BD Biosciences), or 100 nM PMA (Sigma) for the times indicated for Western blots or 24 hours for MTT assays.
# MTT assays were performed using a colorimetric assay cell proliferation kit (Roche Applied Science) according to the manufacturer's instructions.
# paxillin [4] = test: Subcellular localization of paxillin and phosphoserine-paxillin; format: cell-based; conditions: upon stimulation with DHT or EGF
# From the text: The subcellular localization of paxillin versus phosphoserine-paxillin was first examined. As expected, paxillin is localized primarily in the cytoplasm in resting cells (FIG. 14, unstimulated). […] This confirms the model of FIG. 9C, which posits that phosphoserine-paxillin regulates nuclear processes. Therefore, a common AR-mediated transcriptional event was examined: expression of PSA mRNA. […] Furthermore, knockdown of endogenous paxillin in LnCAP cells prevented DHT-induced induction of PSA mRNA expression and promoter activity (FIGS. 9A and 15). […] Together, these studies further emphasize that paxillin regulates cross-talk between extranuclear kinase signaling and intranuclear transcription.
# Sequence of prostate-specific membrane antigen (PSMA) (Q04609 whole entry): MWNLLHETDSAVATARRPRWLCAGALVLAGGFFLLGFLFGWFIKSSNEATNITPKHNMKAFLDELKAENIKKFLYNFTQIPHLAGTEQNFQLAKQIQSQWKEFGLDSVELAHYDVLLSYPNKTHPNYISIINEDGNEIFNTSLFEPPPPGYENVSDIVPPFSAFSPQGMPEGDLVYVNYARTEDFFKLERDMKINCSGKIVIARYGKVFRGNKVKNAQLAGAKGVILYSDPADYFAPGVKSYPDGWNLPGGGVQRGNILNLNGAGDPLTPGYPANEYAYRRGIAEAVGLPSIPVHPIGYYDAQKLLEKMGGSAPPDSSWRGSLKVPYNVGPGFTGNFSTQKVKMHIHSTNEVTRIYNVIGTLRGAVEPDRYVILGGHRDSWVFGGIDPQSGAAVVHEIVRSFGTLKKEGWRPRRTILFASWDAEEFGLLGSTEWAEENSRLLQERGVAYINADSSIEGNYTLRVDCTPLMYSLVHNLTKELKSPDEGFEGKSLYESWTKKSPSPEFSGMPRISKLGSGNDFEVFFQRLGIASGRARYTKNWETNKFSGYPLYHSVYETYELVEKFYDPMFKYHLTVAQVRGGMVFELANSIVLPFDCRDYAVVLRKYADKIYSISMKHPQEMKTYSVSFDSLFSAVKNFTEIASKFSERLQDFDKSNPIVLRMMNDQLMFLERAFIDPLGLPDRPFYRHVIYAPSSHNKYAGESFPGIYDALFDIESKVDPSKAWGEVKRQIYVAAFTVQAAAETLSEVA
molecule,measurement,setting,value
COc1cc2ncnc(Nc3cccc(Cl)c3)c2cc1OC [AG1478],EGF-induced Erk activation,"Erk1/2; 20 μM AG1478, EGF 20 ng/ml",specifically blocks
same,FGF-induced Erk activation,"Erk1/2; 20 μM AG1478, FGF 25 ng/ml",does not block
same,DHT-induced Erk1/2 phosphorylation,Erk1/2,blocked
same,DHT-induced Src phosphorylation,Src,blocked
same,"DHT-induced paxillin phosphorylation at all four sites (tyrosines 31/118, serines 83/126)",paxillin [1],abrogated
same,DHT-induced expression of PSA mRNA,PSA mRNA,abrogated
same,EGF but not FGF-induced MEK activation,MEK,specifically blocks
CNC(=O)[C@H](Cc1c[nH]c2ccccc12)NC(=O)[C@@H](CC(=O)NO)CC(C)C [galardin],DHT-induced Erk1/2 phosphorylation,Erk1/2,block
same,ability of medium from DHT-treated LnCAP cells to activate EGF receptor signaling in A431 cells,EGFR; 20 μM galardin added to DHT (25 nM)-treated LnCAP cells,blocked
C#Cc1cccc(Nc2ncnc3cc(OCCOC)c(OCCOC)cc23)c1 [Erlotinib],DHT-induced Erk1/2 phosphorylation,Erk1/2,blocked
CCCCCCCCCCCCCC(=O)O[C@@H]1[C@@H](C)[C@@]2(O)[C@@H](C=C(CO)C[C@]3(O)C(=O)C(C)=C[C@@H]23)[C@@H]2C(C)(C)[C@]12OC(C)=O [PMA],paxillin phosphorylation (tyrosine and serine),paxillin [2],only promoted serine phosphorylation
CC(C)(C)n1nc(-c2ccc(Cl)cc2)c2c(N)ncnc21 [PP2],DHT-induced Erk1/2 phosphorylation,Erk1/2,blocked
same,"DHT-induced paxillin phosphorylation at all four sites (tyrosines 31/118, serines 83/126)",paxillin [1],abrogated
"Aptamer A10-3: RNA aptamer which binds specifically to PSMA (GGGAGGACGAUGCGGAUCAGCCAUGUUUACGUCACUCCUUGUCAAUCCUCAUCGGC; listed as RNA, chemistry not given here)",binding to PSMA,[3],binds specifically
CCC(=C/[C@H](C)C/C=C/C(C)=C/[C@@H](C)C(=O)[C@@H](C)[C@H](O)[C@@H](C)C/C(C)=C/C(=O)O)/C=C/[C@@H]1OC(=O)C=C[C@@H]1C [leptomycin B],nuclear localization of the AR in paxillin-knockdown cells stimulated with DHT,androgen receptors (AR); leptomycin B prevents nuclear export through CRM,rescues
C[C@]12CCC(=O)C[C@@H]1CC[C@@H]1[C@@H]2CC[C@]2(C)[C@@H](O)CC[C@@H]12 [DHT],Erk1/2 activation from 15 to 120 minutes,Erk1/2; 25 nM DHT or 20 ng/ml EGF,induced
same,Erk1/2 phosphorylation/activation,"Erk1/2; 25 nM DHT, 30 minutes",significantly induced
same,"EGF receptor activation in A431 cells, direct stimulation","EGFR; DHT alone (25 nM), no LnCAP cells",did not promote
same,EGF receptor phosphorylation in A431 cells by medium from treated LnCAP cells,"EGFR; medium from 25 nM DHT-treated LnCAP cells, 60 minutes",increased
same,LnCAP proliferation by both MTT and BrdU incorporation,LnCAP cells; 0.1-100 nM DHT,promoted
same,cell proliferation (MTT),"LnCAP cells; LnCAP, DHT 25 nM or EGF 20 ng/ml, 24 hours",significantly stimulated
same,phosphorylation of paxillin at tyrosines 31/118 and serines 83/126,"paxillin [1]; 25 nM DHT, 30 minutes",triggered
same,AR nuclear localization,androgen receptors (AR); DHT-treatment,promotes
same,localization of total paxillin (T-Pax),paxillin [4],relocalizes the nucleus
same,share of phosphoserine-paxillin (PS-PAX) in the nucleus,paxillin [4],nearly all
B1,binding to PSMA,[3],binds specifically
B2,binding to PSMA,[3],binds specifically

# Source: US20130136753A1, “PAXILLIN AS A THERAPEUTIC OR DIAGNOSTIC MARKER FOR CANCER” (UNIVERSITY OF ROCHESTER, priority 2010, published 2013)
